Assay results reported in ChEMBL document CHEMBL2040811, “Synthesis and biological evaluation of new homocamptothecin analogs” (Eur J Med Chem, 2012).
Active and inactive are the calls of the source. No cut-off for these calls is given here.

Assays:
[1] = Stability of the compound assessed as retention of lactone group in phosphate buffer at pH 7 after 8 hrs by HPLC analysis; assay type: physicochemical; conditions: for remaining at 8 h: phosphate buffer, pH 7, read-out: Stability; for Stability: buffer, pH 7, 8 h
A549 = assay: Cytotoxicity against human A549 after 72 hrs by SRB assay; assay type: functional, cell-based; conditions: A549, 72 h
[2] = Stability of the compound assessed as retention of lactone group at pH 7 after 8 hrs in presence of human serum albumin by HPLC analysis; assay type: ADME; conditions: for remaining at 8 h: human serum albumin solution, pH 7, read-out: Stability; for Stability: buffer, pH 7, 8 h
HCT-116 = assay: Cytotoxicity against human HCT116 after 72 hrs by SRB assay; assay type: functional, cell-based; conditions: HCT-116, 72 h
[3] = molecular target: T1, DNA topoisomerase 1 (Homo sapiens) (UniProt P11387); assay: Inhibition of topo 1-mediated relaxation of supercoiled pBR322 at 10 to 100 uM after 30 mins using ethidium bromide by agarose-gel electrophoresis
T1 sequence (whole entry): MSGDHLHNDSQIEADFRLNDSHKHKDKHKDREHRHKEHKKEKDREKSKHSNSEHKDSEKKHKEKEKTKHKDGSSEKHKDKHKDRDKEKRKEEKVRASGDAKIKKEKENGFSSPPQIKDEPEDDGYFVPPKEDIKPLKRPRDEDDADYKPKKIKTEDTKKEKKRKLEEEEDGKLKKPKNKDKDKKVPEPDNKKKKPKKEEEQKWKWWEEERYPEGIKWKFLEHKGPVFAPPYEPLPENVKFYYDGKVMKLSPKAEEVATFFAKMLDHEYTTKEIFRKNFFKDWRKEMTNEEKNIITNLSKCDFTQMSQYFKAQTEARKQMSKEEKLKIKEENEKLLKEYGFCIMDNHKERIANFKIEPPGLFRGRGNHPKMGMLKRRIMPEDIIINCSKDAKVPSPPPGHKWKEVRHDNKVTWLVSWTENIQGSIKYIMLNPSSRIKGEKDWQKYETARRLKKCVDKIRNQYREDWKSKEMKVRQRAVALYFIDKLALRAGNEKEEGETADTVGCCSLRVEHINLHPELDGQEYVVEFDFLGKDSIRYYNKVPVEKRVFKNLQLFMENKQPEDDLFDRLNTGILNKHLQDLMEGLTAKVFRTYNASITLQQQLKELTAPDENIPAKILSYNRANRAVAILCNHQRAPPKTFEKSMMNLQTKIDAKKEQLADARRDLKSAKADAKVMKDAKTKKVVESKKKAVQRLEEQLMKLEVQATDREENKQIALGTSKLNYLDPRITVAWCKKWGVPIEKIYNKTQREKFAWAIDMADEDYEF

| SMILES | remaining at 8 h [1] | IC50 (A549) | remaining at 8 h [2] | IC50 (HCT-116) | inhibition [3] | Stability [1] | Stability [2] |
| --- | --- | --- | --- | --- | --- | --- | --- |
| CC[C@@]1(O)C(=O)OCc2c1cc1n(c2=O)Cc2cc3ccccc3nc2-1 [CAMPTOTHECIN] | < 40% | 33.8 nM | 20% | 22.9 nM |  |  |  |
| CC[C@]1(O)c2cc3n(c(=O)c2COC(=O)[C@@H]1O)Cc1cc2cc4c(cc2nc1-3)OCO4 |  | 3.1 nM |  | 3.1 nM | Active |  |  |
| CC[C@]1(O)c2cc3n(c(=O)c2COC(=O)[C@@H]1O)Cc1cc2ccccc2nc1-3 |  | 16.8 nM |  | 49.3 nM | Active | Stable | Stable |
| CC[C@]1(O)c2cc3n(c(=O)c2COC(=O)[C@@H]1OC(C)=O)Cc1cc2cc(OC)ccc2nc1-3 |  | 4.7 nM |  | 4.4 nM | Active |  |  |
| CC[C@]1(O)c2cc3n(c(=O)c2COC(=O)[C@@H]1O)Cc1cc2cc4c(cc2nc1-3)OCCO4 |  | 2.9 nM |  | 3.4 nM | Active |  |  |
| CC[C@]1(O)c2cc3n(c(=O)c2COC(=O)[C@@H]1O)Cc1cc2cc(OC)ccc2nc1-3 |  | 4.8 nM |  | 10.6 nM | Active |  |  |
| CC[C@]1(O)c2cc3n(c(=O)c2COC(=O)[C@@H]1OC(C)=O)Cc1cc2ccccc2nc1-3 |  | 49.2 nM |  | 14.2 nM | Active | Stable | Stable |
| CC[C@]1(O)c2cc3n(c(=O)c2COC(=O)[C@@H]1OC(C)=O)Cc1cc2cc4c(cc2nc1-3)OCCO4 | 90% | 4.6 nM | 55% | 4.9 nM | Active |  |  |
| CC[C@@]1(O)C(=O)OCc2c1cc1n(c2=O)Cc2cc3cc(O)ccc3nc2-1 [HYDROXYCAMPTOTHECIN] |  | 33.6 nM |  | 31.2 nM | Active |  |  |
| CC[C@]1(O)c2cc3n(c(=O)c2COC(=O)[C@@H]1OC(C)=O)Cc1cc2cc4c(cc2nc1-3)OCO4 |  | 1.2 nM |  | 2.1 nM | Active | Stable | Stable |
| CCc1c2c(nc3ccc(O)cc13)-c1cc3c(c(=O)n1C2)COC(=O)[C@]3(O)CC |  |  |  |  | Active |  |  |
